Measurements as given in patent publication US9506032B2, “Engineered biological pacemakers” (The United States of America, as represented by the …, priority 2009, dated 2016).

Columns and labels:
Type in all cases: cell-based, Mouse
[1] = test system: spontaneously beating ESCs; experiment: Spontaneous action potentials and Ca2+ signals in intact spontaneously beating ESCs (patch clamp with confocal imaging); details: for LCRs (effect of intervention) / spontaneous AP firing and Ca2+ transients: intact spontaneously beating ESCs (FIG. 6)
Excerpt: (§1) Mouse ES cells of line R1 were differentiated into cardiac cells using the “hanging drop” technique. ESCs were isolated from in vitro-grown embryoid bodies by microdissection followed by collagenase treatment. […] At day 2, EBs were transferred into bacteriological petri dishes and cultured in suspension until day 5. […] Individual spontaneously beating ESCs were isolated by microdissection and collagenase treatment.
ESCs differentiated in vitro for 9 to 20 days after plating of 7 days old embryoid bodies were studied during continuous superfusion with solution containing in mmol/L: 140 NaCl, 5.4 KCl, 5 HEPES, 2 MgCl2, 1.8 CaCl2, 10 glucose, (pH adjusted to 7.4 with NaOH). Selection of the cells for patch-clamp technique was based on spontaneous beating. Action potentials were measured at physiological temperature (35±2° C.) with standard current-clamp technique (Axopatch 200, Axon Instruments, Foster City, Calif., USA), pCLAMP7 software was used for data acquisition and analysis (Axon Instruments). Perforated patch-clamp technique was performed with β-escin added to the electrode solution. Patch pipette solution contained in mmol/L: 120 K-gluconate, 5 NaCl, 5 Mg-ATP, 5 HEPES, 20 KCl, 3 Na2ATP (pH adjusted to 7.2 with NaOH). […] Patch pipette filling solution contained (in mmol/L) 120 CsCl, 10 NaCl, 20 tetraethylammonium chloride, 5 MgATP, and 20 HEPES (pH 7.2 adjusted with CsOH), and 100 μmol/L fluo-4 pentapotassium salt (Molecular Probes). Four conditioning pulses of 100 ms and 0 mV were delivered at 1.0 Hz prior to each test voltage pulse to load the SR with Ca^2+.
In whole cell configuration, fluo-4 was added directly to the pipette solution.
(§2) Fluo-4 measurements are presented in terms of F/F0 (normalized Ca^2+ signal). […] were analyzed by programs developed using Delfi-7 software. The duration and width of LCRs were measured as the time at half-maximal amplitude of the normalized signal.

[2] = test system: Na+/Ca2+ exchanger (NCX) current in ESCs; experiment: Inward NCX current spikes in ESCs voltage-clamped at -50 mV; details: voltage clamp −50 mV, Na+ substituted by Li+ inhibiting NCX; 10 to 20 pA in control
Procedure: ESCs differentiated in vitro for 9 to 20 days after plating of 7 days old embryoid bodies were studied during continuous superfusion with solution containing in mmol/L: 140 NaCl, 5.4 KCl, 5 HEPES, 2 MgCl2, 1.8 CaCl2, 10 glucose, (pH adjusted to 7.4 with NaOH). Selection of the cells for patch-clamp technique was based on spontaneous beating. Action potentials were measured at physiological temperature (35±2° C.) with standard current-clamp technique (Axopatch 200, Axon Instruments, Foster City, Calif., USA), pCLAMP7 software was used for data acquisition and analysis (Axon Instruments). Perforated patch-clamp technique was performed with β-escin added to the electrode solution. Patch pipette solution contained in mmol/L: 120 K-gluconate, 5 NaCl, 5 Mg-ATP, 5 HEPES, 20 KCl, 3 Na2ATP (pH adjusted to 7.2 with NaOH). Recording of L-type Ca^2+ current (ICaL) simultaneously with Ca^2+ signal imaging (see Example 3) were performed under whole cell voltage clamp. […]
When activation of ion channels and APs are disabled by voltage clamp at −50 mV, spontaneous LCRS for at least 5 s were observed (FIG. 4, Panel A). […] It was determined under the voltage clamp whether LCRs can cause the current spikes via NCX activation. […]

[3] = test system: saponin-skinned ESCs; experiment: Local Ca2+ releases (LCRs) in saponin-skinned ESCs, confocal line-scan Ca2+ imaging; details: for LCRs (effect of drug): skinned ESCs, 150 nmol/L free [Ca2+]
Excerpt: as §1, §2

CC(=O)OCOC(=O)CN(CC(=O)OCOC(C)=O)c1ccccc1OCCOc1ccccc1N(CC(=O)OCOC(C)=O)CC(=O)OCOC(C)=O [BAPTA-AM]
LCRs (effect of intervention) [1]: inhibited | spontaneous AP firing and Ca2+ transients [1]: became irregular, culminating in cessation of automaticity or in extremely rare and irregular beating

Nc1ncnc2c1nc(Sc1ccc(Cl)cc1)n2[C@@H]1O[C@@H]2COP(=O)(O)O[C@H]2[C@H]1O [CPT-cAMP]
cycle length (CL) variability index (100%×CL standard deviation/CL mean) ([1]; cells with irregular beating, after 300 μmol/L CPT-cAMP, before 23.98+/−4.82%, P<0.05): 11.23+/−2.68% | rhythmicity of beating ([1]; irregularly beating ESCs, 300 μmol/L CPT-cAMP): converted irregularly beating ESCs to rhythmic pacemakers

O=S(=O)(NCCNC/C=C/c1ccc(Br)cc1)c1cccc2cnccc12 [H89]
APs / automaticity on PKA inhibition ([1]; spontaneously beating ESCs, 10 μmol/L): irregUlar APs or cessation of automaticity

[Li+] [Li^+]
high-amplitude inward current spikes [2]: disappeared | spontaneous excitation (APs) ([1]; Na+-free lithium solution applied ~1 s, zero-current clamp, rhythmic LCRs continued): excitation failure

Nc1ncnc2c1ncn2[C@@H]1O[C@@H]2COP(=O)(O)O[C@H]2[C@H]1O [cAMP, cyclic AMP]
local Ca2+ oscillators ([3]; saponin-skinned ESCs, stimulation with 20 μmol/L cAMP): emergence of new local Ca^2+ oscillators in many cell locations

CCCCNc1ccc(C(=O)OCCN(C)C)cc1 [tetracaine]
LCRs (effect of drug) ([3]; 1 mmol/L drug): inhibited

C/C=C(/C)C(=O)O[C@H]1C(C)=C2[C@H]([C@@H]1OC(=O)CCCCCCC)[C@@](C)(OC(C)=O)C[C@H](OC(=O)CCC)[C@@]1(O)[C@H]2OC(=O)[C@@]1(C)O [thapsigargin]
LCRs (effect of drug) ([3]; 10 μmol/L drug): inhibited | LCRs (effect of intervention) [1]: inhibited | spontaneous AP firing and Ca2+ transients [1]: became irregular, culminating in cessation of automaticity or in extremely rare and irregular beating

ryanodine
LCRs (effect of drug) ([3]; 10 μmol/L drug): inhibited | LCRs (effect of intervention) [1]: inhibited | spontaneous AP firing and Ca2+ transients [1]: became irregular, culminating in cessation of automaticity or in extremely rare and irregular beating
